Data reported in US6395762B1, “Phenyl amino squarate and thiadiazole dioxide beta-3 adrenergic receptor agonists” (American Home Products Corporation, priority 2000, dated 2002).

Legend:
human β3-AR = molecular target: T1, human β3-AR (Homo sapiens, UniProt P13945); experiment: cAMP accumulation (SPA) in CHO cells transfected with human β3-AR; format: cell-based; details: CHO cells transfected with human β3-AR; for EC50: cAMP by SPA, 30 min at 37° C., 10^−9 M to 10^−5 M, read-out: EC50(β3); for IA(β3): maximal response of compound relative to maximal response of isoproterenol at 10^−5 M
T1 construct: Full-length β3-AR clones (402 amino acids) containing the last 6 amino acids of hβ3-AR; expressed in transfected cells; host or cells: CHO (Chinese hamster ovary) cells
Procedure: The ability of the compounds of this invention to treat or inhibit disorders related to insulin resistance or hyperglycemia was confirmed with representative compounds of this invention in the following standard pharmacological test procedures, which measured the binding selectivity of the β1-, β2-, and β3-AR. Binding to the receptors was measured in Chinese Hamster ovary (CHO) cells that were transfected with β1-, β2-, and β3-AR's. The following briefly summarizes the procedures used and results obtained.
Cloning of Human β3-AR Genomic DNA: cDNA was constructed by ligating four polymerase chain reaction (PCR) products using the following primers: an ATG-Narl fragment, sense primer 5′-[…]3′ and anti-sense primer 5′[…]3′; a Narl-Accl fragment, 5′[…]3′ as sense and 5′[…]3′ as anti-sense primer; an Accli—Styl fragment, sense primer 5′[…]3′ and anti-sense primer 5′[…]3′ and a Styl-TAG fragment, with sense primer 5′ […]3′ and anti-sense primer 5′ […]3′ . The corresponding primer sequences are described in Mantzoros, C. S., et.al., Diabetes, 1996, 45, 909-914. The four fragments are ligated into a pUC 18 plasmid (Gibco-BRL) and sequenced. Full-length β3-AR clones (402 amino acids) containing the last 6 amino acids of hβ3-AR are prepared with the β3-βARpcDNA3 from ATTC.
Binding Procedure: Clones expressing receptor levels of 70 to 110 fmoles/mg protein were used in the test procedures. CHO cells were grown in 24-well tissue culture plates in Dulbecco's Modified Eagle Media with 10% fetal bovine serum, MEM non-essential amino acids, Penicillin—Streptomycin and Geneticin. On the day of test procedure, growth medium was replaced with preincubation media (Dulbecco's Modified Eagle Media) and incubated for 30 minutes at 37° C. Pre-incubation medium was replaced with 0.2 ml treatment medium containing DMEM media containing 250 μM IBMX (isobutyl-1-methylxantine) plus 1 mM ascorbic acid with test compound dissolved in DMSO. Test compounds were assayed over a concentration range of 10^−9 M to 10^−5 M for β3-AR transfected cells and 10^−8 to 10^−4 M for β1-AR and β2-AR transfected cells. Isoproterenol (10^−5 M) was used as an internal standard for comparison of activity. Cells were incubated at 37° C. on a rocker for 30 min with the β3-AR transfected cells and 15 min with β1-AR and β2-AR transfected cells. Incubation was stopped by the addition of 0.2N HCl and the acid was neutralized with 2.5N NaOH. The plates, containing the cells and neutralized media, were stored at −20° C. until ready to test for cAMP using the SPA test kit (Amersham).
Data Analysis and Results: Data collected from the SPA test procedure were analyzed as percent of the maximal isoproterenol response at 10^−5 M. Activity curves were plotted using the SAS statistical and graphics software.

T1 sequence (P13945 whole entry): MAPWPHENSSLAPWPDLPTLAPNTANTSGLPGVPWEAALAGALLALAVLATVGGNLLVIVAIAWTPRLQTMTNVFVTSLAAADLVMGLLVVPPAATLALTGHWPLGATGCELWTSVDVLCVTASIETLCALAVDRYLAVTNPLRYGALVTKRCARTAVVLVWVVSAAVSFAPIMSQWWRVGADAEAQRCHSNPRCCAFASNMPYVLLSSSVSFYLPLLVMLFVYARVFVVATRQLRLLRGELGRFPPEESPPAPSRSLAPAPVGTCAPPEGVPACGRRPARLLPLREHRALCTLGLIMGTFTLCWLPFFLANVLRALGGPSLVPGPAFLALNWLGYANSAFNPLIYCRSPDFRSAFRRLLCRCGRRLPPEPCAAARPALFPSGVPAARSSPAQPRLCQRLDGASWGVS

Row | EC50 (human β3-AR) [nM] | IA(β3) (human β3-AR) | melting point [°C] | SMILES
1 | 5 | 0.91 | 95 to 100 | COc1ccc(CCNC2=NS(=O)(=O)N=C2Nc2ccc(CC(C)NC[C@H](O)COc3ccc(O)cc3)cc2)cc1 (stereo partly drawn) [Compound 36, (S)-4-{2-hydroxy-3-[2-(4-{4-[2-(4methoxy-phenyl)-ethylamino]-1 1-dioxo-1H-1.lambda(6).-[1,2,5]thiadiazol-3-ylamino}-phenyl)-1-methyl-ethylamino]-propoxy}-phenol]
2 | 6 | 0.87 | 126 to 131 | CC(Cc1ccc(NC2=NS(=O)(=O)N=C2NCCc2ccc(F)cc2)cc1)NC[C@H](O)COc1ccc(O)cc1 (stereo partly drawn) [Compound 37]
